The values that follow come from patent US20130261177A1, “COMPOUNDS CAPABLE OF MODULATING/PRESERVING ENDOTHELIAL INTEGRITY FOR USE IN PREVENTION OR TREATMENT OF ACUTE TRAUMATIC COAGULOPATHY AND RESUSCITATED CARDIAC ARREST” (priority 2010, published 2013).

Each structure is given as a SMILES string.

One data set concerns Protein C. Put plainly: Plasma biomarker ELISA after Flolan infusion in healthy volunteers: Protein C. The data set is classed as in vivo, human. Particulars: 4 ng/kg/min intravenously for 2 h, in the hours after ceasing the infusion. The method, then: (§1) Eight healthy volunteers were administered Flolan® (Prostacyclin) intravenously at a dose of 4 ng/kg/min for 2 h. Blood samples were analyzed for plasma biomarkers indicative of endothelial cell (thrombomodulin, PAI-1) and glycocalyx (syndecan-1) activation and/or damage, cellular necrosis (histone-complexed DNA fragments, HMGB1) and anticoagulation (protein C, antithrombin, TFPI) at the following time points: Before the infusion (Oh), immediately after ceasing the infusion (2 h) and then 4 h, 5 h, 6 h, 8 h and 24 h after starting the infusion. The concentration of the individual biomarkers in plasma was analyzed by commercially available ELISA kits according to the manufactures recommendations. Paired t-tests with p-values <0.05 were considered significant.
In general terms: In an ELISA, binding on a coated surface is turned into a signal by an enzyme label.

Another data set has as its system thrombomodulin. In words: Plasma biomarker ELISA after Flolan infusion in healthy volunteers: thrombomodulin. The class given is in vivo, human. Conditions: 4 ng/kg/min intravenously for 2 h, prolonged for several hours after ceasing the infusion. On the procedure:
as §1

For another data set, the system named is antithrombin. Put plainly: Plasma biomarker ELISA after Flolan infusion in healthy volunteers: antithrombin. The class given is in vivo, human. Conditions: 4 ng/kg/min intravenously for 2 h. The method, then:
as §1

The format of data set [1] is in vivo. The method, then: Ninety-four critically ill patients admitted to the intensive care unit (ICU) underwent haemofiltration with or without concomitant Flolan (prostacycline) treatment. None of the patients were suffering from Acute Traumatic Coagulopathy nor from sequelae to cardiac arrest. Flolan was administered in a low dose in the filters to prevent these from clotting and consequently there was only a minor spill over of Flolan to the systemic circulation. The patients were retrospectively reviewed.
However, patients in the flolan group were more severely ill as evaluated by a lower platelet count at start of hemofiltration, a higher frequency of severe thrombocytopenia, a higher frequency of DIC diagnoses, a higher maximum SOFA score and a higher SOFA score at hemofiltration initiation as compared to the patients receiving non-flolan.

The nature of data set [2]: Blood pressure and heart rate during intravenous flolan infusion in healthy volunteers. Conditions: 4 ng/kg/min intravenously for 2 h, any time point. The class given is in vivo, human. On the procedure: (§2) Six healthy volunteers were administered flolan (Prostacycline) intravenously at a dose of 4 ng/kg/min for 2 h. Blood samples for whole blood viscoelastical assay (Thrombelastography [TEG]) and whole blood platelet aggregation (Multiplate) were obtained before infusion of Flolan, after 60 min infusion of Flolan and after 120 min infusion of Flolan.

In data set [3] the test system is whole blood haemostatic competence. In words: Whole blood viscoelastical assay (Thrombelastography, TEG), kaolin activated, in healthy volunteers infused with flolan. The class given is in vivo, human. Particulars: 6 healthy volunteers, 4 ng/kg/min intravenously, after 60 and 120 min infusion. The method, then:
Six healthy volunteers were administered flolan (Prostacycline) intravenously at a dose of 4 ng/kg/min for 2 h. Blood samples for whole blood viscoelastical assay (Thrombelastography [TEG]) and whole blood platelet aggregation (Multiplate) were obtained before infusion of Flolan, after 60 min infusion of Flolan and after 120 min infusion of Flolan. With regard to the TEG assay this was performed as recommended by the manufacturer and 340 μl are mixed with 20 μl CaCl 0.2 M (final concentration 11.1 mM in the cup) and kaolin at 37° C. after which the haemostatic activity is recorded as depicted in FIG. 1.

The subject of data set [4] is whole blood platelet aggregation. In words: Whole blood impedance aggregometry (Multiplate) in healthy volunteers infused with flolan. The class given is in vivo, human. Conditions: 6 healthy volunteers, 4 ng/kg/min intravenously, after 60 and 120 min infusion. On the procedure:
as §2
Whole blood impedance aggregometry was analyzed by the Multiple Platelet function Analyzer (MultiPlate® analyzer). Analysis employing various platelet agonists: ASPItest (activation by arachidonic acid), COLtest (activation by collagen through the collagen receptor), TRAPtest (activation by TRAP-6 stimulates the thrombin receptor on the platelet surface and ADPtest (activation by ADP stimulates platelet activation by the ADP receptors).
MultiPlate continuously records platelet aggregation. The increase of impedance by the attachment of platelets onto the Multiplate sensors is transformed to arbitrary aggregation units (AU) and plotted against time as depicted in FIG. 2.

In the next data set the test system is PAI-1. In words: Plasma biomarker ELISA after Flolan infusion in healthy volunteers: PAI-1. The class given is in vivo, human. Particulars: 4 ng/kg/min intravenously for 2 h. On the procedure:
as §1

For `CCCCC[C@H](O)/C=C/[C@@H]1[C@H]2C/C(=C/CCCC(=O)O)O[C@H]2C[C@H]1O` [Flolan, epoprostenol sodium], the “circulating level of Protein C” value with Protein C is listed as “decreased”. The “circulating level of thrombomodulin” value in the data set on thrombomodulin is reported as “marked decrease”. The “circulating level of antithrombin” value with antithrombin was “decreased”. Further, the “mortality at 30 days” value in data set [1] (ICU patients, low dose Flolan in the haemofiltration filters, vs. 39% non-flolan, p=0.12) worked out at 21%. The 90 day mortality in data set [1] (ICU patients, low dose Flolan in the haemofiltration filters, vs. 53% non-flolan, p=0.10) is 34%. Also, in data set [1] (ICU patients, low dose Flolan in the haemofiltration filters, vs. 57% non-flolan, p=0.09), the “mortality at 365 days” value turned out to be 38%. Also, in data set [1] (human, in vivo), the “Platelet count (difference before vs. after haemofiltration)” value was “+14”; the “haemostatic competence as evaluated by transfusion requirements” value is reported as “does not negatively influence”; the “total transfusion requirements and specifically of FFP during hemofiltration” value is “increased total transfusion requirements”. In data set [2], the “blood pressure, change from baseline” value was “did not change” and the “heart rate, change from baseline” value is “did not change”. Besides, the “TEG values (R, Angle, MA), baseline vs. during infusion” value in data set [3] is “No significant difference”. The “Multiplate values (agonists ASPI, COL, ADP, TRAP), baseline vs. during infusion” value in data set [4] is “no significant difference”. For the same molecule, the “circulating level of PAI-1” value in the data set with PAI-1 is on record as “declined”.

A word on the mortality: it is the share of the test organisms that died. The low end stands for more survivors, the high end for fewer survivors.
